Test results from publication PMC8286840, “Identifying SARS-CoV-2 antiviral compounds by screening for small molecule inhibitors of Nsp3 papain-like protease” (Biochemical Journal, 2021).
Where a name gives a salt, the structure may show the parent alone. Read-outs that look alike come from different tables or passages of the source.

Experiments:
[1] = molecular target: T1, SARS-CoV-2 PLpro (nsp3 1564–1878) (Severe acute respiratory syndrome coronavirus 2, UniProt P0DTD1); experiment: biochemical; set-up: FRET-quenched peptide (Pro3) cleavage by PLpro, 10 min pre-incubation, slope over 20 min, normalised to no-compound control; settings: high concentration screen, read-out: % of control remaining
[2] = molecular target: T1, SARS-CoV-2 PLpro (nsp3 1564–1878); experiment: biochemical; set-up: FRET-quenched peptide (Pro3) cleavage by PLpro, 10 min pre-incubation, slope over 20 min, normalised to no-compound control; settings: low concentration screen, read-out: % of control remaining

OCCn1cc(-c2ccc3c(c2)CC/C3=N\O)c(-c2ccncc2)n1 [GDC-0879]
remaining activity at 3.75 µM ([1]; Well no.=5043): 104% | remaining activity at 1.25 µM ([2]; Well no.=5043): 104%

CS(=O)(=O)N1CCN(Cc2cc3nc(-c4cccc5[nH]ncc45)nc(N4CCOCC4)c3s2)CC1 [GDC-0941]
remaining activity at 3.75 µM ([1]; Well no.=2801): 101% | remaining activity at 1.25 µM ([2]; Well no.=2801): 103%

Cc1cccc(NC(=O)Nc2ccc(-c3csc4ncnc(N)c34)cc2)c1 [GDP366]
remaining activity at 3.75 µM ([1]; Well no.=6976): 99.1% | remaining activity at 1.25 µM ([2]; Well no.=6976): 101%

Cc1cc(Cc2cc(C)cc(C(C)(C)C)c2O)c(O)c(C(C)(C)C)c1 [GERI-BP002-A]
remaining activity at 3.75 µM ([1]; Well no.=3701): 101% | remaining activity at 1.25 µM ([2]; Well no.=3701): 97.3%

Cc1cc(Cc2cc(C)cc(C(C)(C)C)c2O)c(O)c(C(C)(C)C)c1 [GERI-BP002A]
remaining activity at 3.75 µM ([1]; Well no.=3907): 97.7% | remaining activity at 1.25 µM ([2]; Well no.=3907): 104%

CN(C)CCCn1cc(C2=C(c3c[nH]c4ccccc34)C(=O)NC2=O)c2ccccc21 [GF 109203X - 2-[1-(3-Dimethylaminopropyl)indol-3-yl]-3-(indol-3-yl) maleimide]
remaining activity at 3.75 µM ([1]; Well no.=2340): 106% | remaining activity at 1.25 µM ([2]; Well no.=2340): 103%

COC(=O)[C@H](CC(C)C)NC(=O)c1ccc(NC[C@@H](N)CS)cc1-c1cccc2ccccc12 [GGTI298 Trifluoroacetate]
remaining activity at 3.75 µM ([1]; Well no.=8456): 86.9% | remaining activity at 1.25 µM ([2]; Well no.=8456): 97.5%

COC(=O)[C@H](CC(C)C)NC(=O)c1ccc(NC[C@@H](N)CS)cc1-c1cccc2ccccc12 [GGTI298]
remaining activity at 3.75 µM ([1]; Well no.=8076): 101% | remaining activity at 1.25 µM ([2]; Well no.=8076): 106%

CN(C)c1cccc(-c2c3c(=O)n(-c4ccccc4Cl)[nH]c3cc(=O)n2C)c1 [GKT137831]
remaining activity at 3.75 µM ([1]; Well no.=9078): 89.9% | remaining activity at 1.25 µM ([2]; Well no.=9078): 96.8%

N#CN=C(NCCCCCCOc1ccc(Cl)cc1)Nc1ccncc1 [GMX1778 (CHS828)]
remaining activity at 3.75 µM ([1]; Well no.=8486): 95.9% | remaining activity at 1.25 µM ([2]; Well no.=8486): 93.1%

O=C(NCCO)c1cccc(-c2cc(Nc3ccc(OC(F)(F)F)cc3)ncn2)c1 [GNF-5]
remaining activity at 3.75 µM ([1]; Well no.=5861): 98.1% | remaining activity at 1.25 µM ([2]; Well no.=5861): 105%

O=C1c2cc([N+](=O)[O-])ccc2-n2c1nc1ccccc1c2=O [GNF-PF-3777]
remaining activity at 3.75 µM ([1]; Well no.=8414): 78.5% | remaining activity at 3.75 µM ([1]; Well no.=8695): 99% | remaining activity at 1.25 µM ([2]; Well no.=8414): 88.1% | remaining activity at 1.25 µM ([2]; Well no.=8695): 103%

O=C(O)CC1CCC2(CC1)CCN(c1cc(OC(F)(F)F)ccc1Cl)CC2 [GPR120-IN-1]
remaining activity at 3.75 µM ([1]; Well no.=8485): 96.8% | remaining activity at 1.25 µM ([2]; Well no.=8485): 104%

OC[C@H]1O[C@@H](n2cnc3c(N[C@H]4CCC[C@@H]4O)ncnc32)[C@H](O)[C@@H]1O [GR79236]
remaining activity at 3.75 µM ([1]; Well no.=7817): 105% | remaining activity at 3.75 µM ([1]; Well no.=7852): 93.8% | remaining activity at 3.75 µM ([1]; Well no.=8455): 110% | remaining activity at 1.25 µM ([2]; Well no.=7817): 105% | remaining activity at 1.25 µM ([2]; Well no.=7852): 94.1% | remaining activity at 1.25 µM ([2]; Well no.=8455): 108%

COC(=O)N1CCN(C(=O)Cc2ccc(Cl)c(Cl)c2)C(CN2CCCC2)C1 (centres unmarked) [GR-89696 fumarate]
remaining activity at 3.75 µM ([1]; Well no.=462): 99.8% | remaining activity at 1.25 µM ([2]; Well no.=462): 101%

CC(C)(C)[C@H]1CC[C@H](N(Cc2ccc(C(=O)NCCC(=O)O)cc2)C(=O)Nc2ccc(OC(F)(F)F)cc2)CC1 [GRA Ex-25]
remaining activity at 3.75 µM ([1]; Well no.=6180): 106% | remaining activity at 1.25 µM ([2]; Well no.=6180): 103%

NCC(=O)N[C@@H](CCCN=C(N)N)C(=O)NCC(=O)N[C@@H](CC(=O)O)C(=O)N[C@@H](CO)C(=O)N1CCC[C@H]1C(=O)O [GRGDSP (TFA)]
remaining activity at 3.75 µM ([1]; Well no.=7558): 109% | remaining activity at 1.25 µM ([2]; Well no.=7558): 102%

Nc1cccc(-c2cc3c(Oc4cccc(O)c4)ncnc3[nH]2)c1 [GSK3b Inhibitor XII, TWS119]
remaining activity at 3.75 µM ([1]; Well no.=2608): 95.8% | remaining activity at 1.25 µM ([2]; Well no.=2608): 97.8%

CC(C)(C)S(=O)(=O)c1ccc2nccc(Nc3n[nH]c4ccc(F)cc34)c2c1 [GSK583]
remaining activity at 3.75 µM ([1]; Well no.=6206): 94.3% | remaining activity at 1.25 µM ([2]; Well no.=6206): 101%

COc1cccc(-n2c(=O)[nH]c3cc(Cl)n(-c4ccc(-c5cccc(OC)c5O)cc4)c3c2=O)c1 [GSK621]
remaining activity at 3.75 µM ([1]; Well no.=8626): 99.7% | remaining activity at 1.25 µM ([2]; Well no.=8626): 101%

COC(=O)c1sccc1S(=O)(=O)Nc1ccc(Nc2ccccc2)cc1OC [GSK0660]
remaining activity at 3.75 µM ([1]; Well no.=5869): 109% | remaining activity at 1.25 µM ([2]; Well no.=5869): 111%

CCS(=O)(=O)c1ccc(CC(=O)Nc2cc(Cl)c(-c3ccccc3OC(F)(F)F)c(Cl)c2)cc1 [GSK805]
remaining activity at 3.75 µM ([1]; Well no.=8657): 94.7% | remaining activity at 1.25 µM ([2]; Well no.=8657): 103%

O=C(NCCS(=O)(=O)c1ccc(C(F)(F)F)cn1)c1ccc(Cl)cc1 [GSK3787]
remaining activity at 3.75 µM ([1]; Well no.=5216): 95.3% | remaining activity at 1.25 µM ([2]; Well no.=5216): 91.7%

CC(C)(C)OC(=O)CN(Cc1ccc(Cl)cc1)Cc1ccc([N+](=O)[O-])s1 [GSK4112]
remaining activity at 3.75 µM ([1]; Well no.=5910): 96% | remaining activity at 1.25 µM ([2]; Well no.=5910): 97.7%

COc1ccc(S(=O)(=O)Nc2c(C)cc(C)cc2C)cc1 [GSK137647A]
remaining activity at 3.75 µM ([1]; Well no.=7757): 103% | remaining activity at 1.25 µM ([2]; Well no.=7757): 103%

COc1cccc(Nc2c(C(N)=O)cnc3c(C)cc(S(=O)(=O)c4cccc(C(=O)N(C)C)c4)cc23)c1 [GSK256066]
remaining activity at 3.75 µM ([1]; Well no.=5300): 98.4% | remaining activity at 1.25 µM ([2]; Well no.=5300): 95.5%

C[C@@H](Oc1cc(-n2cnc3ccc(CN4CCN(C)CC4)cc32)sc1C(N)=O)c1ccccc1C(F)(F)F [GSK461364]
remaining activity at 3.75 µM ([1]; Well no.=5146): 103% | remaining activity at 1.25 µM ([2]; Well no.=5146): 102%

O=C(/C=C/c1ccc(Cl)cc1)N1CCC2(CC1)CN(Cc1ccc(Cl)c(Cl)c1)C(=O)O2 [GSK682753A]
remaining activity at 3.75 µM ([1]; Well no.=7054): 101% | remaining activity at 1.25 µM ([2]; Well no.=7054): 107%

CCn1c(-c2nonc2N)nc2c(C#CC(C)(C)O)ncc(OC[C@H]3CCCNC3)c21 [GSK690693]
remaining activity at 3.75 µM ([1]; Well no.=3041): 94.4% | remaining activity at 1.25 µM ([2]; Well no.=3041): 97.7%

O=C1NC(=O)/C(=C/c2ccc3nccc(-c4ccncc4)c3c2)S1 [GSK1059615]
remaining activity at 3.75 µM ([1]; Well no.=5191): 99.2% | remaining activity at 1.25 µM ([2]; Well no.=5191): 104%

CCn1cc(-c2ccnc3[nH]c(-c4cccc(CN(C)C)c4)cc23)c(-c2ccc(NC(=O)N(C)C)cc2)n1 [GSK1070916]
remaining activity at 3.75 µM ([1]; Well no.=5031): 99.8% | remaining activity at 1.25 µM ([2]; Well no.=5031): 101%

CC(C)c1noc(N2CCC(COc3ccc(-c4ccc(S(C)(=O)=O)cc4)nc3)CC2)n1 [GSK1292263]
remaining activity at 3.75 µM ([1]; Well no.=5106): 97.1% | remaining activity at 3.75 µM ([1]; Well no.=8539): 104% | remaining activity at 1.25 µM ([2]; Well no.=5106): 93.1% | remaining activity at 1.25 µM ([2]; Well no.=8539): 105%

CNC(=O)c1c(F)cccc1Nc1nc(Nc2cc3c(ccn3C(=O)CN(C)C)cc2OC)nc2[nH]ccc12 [GSK1838705A]
remaining activity at 3.75 µM ([1]; Well no.=5310): 92% | remaining activity at 1.25 µM ([2]; Well no.=5310): 98%
